Values of other authors, collected in US20140271892A1, “PHENYLEPHRINE RESINATE PARTICLES HAVING GOOD AUC” (McNeil-PPC, Inc., priority 2013, published 2014).

How the values were obtained:
[1] = therapeutic dose
[2] = 30 mg dose administered orally over eight hours

Row | excreted unchanged in the urine [1] | metabolized to m-hydroxy-phenylglycol-sulfate [2] | metabolized to m-hydroxymandelic acid [2] | metabolized to phenylephrine-glucuronide [2] | metabolized to phenylephrine-sulfate [2] | SMILES
1 | Less than 9 % of a therapeutic dose | – | – | – | – | CC(=O)Nc1ccc(O)cc1 [acetaminophen, Acetaminophen]
2 | – | 6 % of the dose | 30 % of the dose | 12 % of the dose | 47 % of the dose | CNC[C@H](O)c1cccc(O)c1 [phenylephrine, (R)-1-(3-hydroxyphenyl)-2-methylaminoethanol]
